“And” between values parts separate entries of the source, which are not always exact repeats. Identical values can stand only once.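 48-hour exposure; five concentrations; linearly interpolated endpoints. GI50 marks 50% less growth. TGI: total growth inhibition.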
What was measured:
Test in all cases: NCI anticancer screen, dose series, 48 h
UACC-257 melanoma = test system: UACC-257 melanoma
RPMI-8226 leukemia = test system: RPMI-8226 leukemia
SK-OV-3 ovarian = test system: SK-OV-3 ovarian
U251 CNS = test system: U251 CNS
SN12C renal = test system: SN12C renal
OVCAR-3 ovarian = test system: OVCAR-3 ovarian
MCF7 breast = test system: MCF7 breast
UO-31 renal = test system: UO-31 renal
OVCAR-8 ovarian = test system: OVCAR-8 ovarian
HT29 colon = test system: HT29 colon

| Structure (SMILES) | GI50 (UACC-257 melanoma) | TGI (UACC-257 melanoma) | GI50 (RPMI-8226 leukemia) | TGI (RPMI-8226 leukemia) | GI50 (SK-OV-3 ovarian) | TGI (SK-OV-3 ovarian) | GI50 (U251 CNS) | TGI (U251 CNS) | GI50 (SN12C renal) | TGI (SN12C renal) | GI50 (OVCAR-3 ovarian) | TGI (OVCAR-3 ovarian) | GI50 (MCF7 breast) | TGI (MCF7 breast) | GI50 (UO-31 renal) | TGI (UO-31 renal) | GI50 (OVCAR-8 ovarian) | TGI (OVCAR-8 ovarian) | GI50 (HT29 colon) | TGI (HT29 colon) |
| --- | --- | --- | --- | --- | --- | --- | --- | --- | --- | --- | --- | --- | --- | --- | --- | --- | --- | --- | --- | --- |
| Cn1cc(C2=C(c3cn(CCCCCSC(=N)N)c4ccccc34)C(=O)NC2=O)c2ccccc21 | 4.01 µM | 7.47 µM | 4.13 µM | 9.61 µM | 2.99 µM | 6.16 µM | 2.5 µM | 5.65 µM | 2.67 µM | 6.01 µM | 3.22 µM | 6.55 µM | 1.22 µM | 4.97 µM | 3.62 µM | 7.29 µM | 3.61 µM | 10.4 µM | 1.11 µM | 4.03 µM |
| CSc1ccc2c(c1)C(N1CCN(C)CC1)Cc1ccccc1S2 (centres undefined) | 1.54 µM | 5.43 µM and 3.03 µM |  | 4.12 µM and 4.58 µM | 2.01 µM | 27.3 µM and 4.25 µM | 1.53 µM | 18.6 µM and 2.95 µM | 2.81 µM | 18.9 µM and 10.8 µM | 2.67 µM | 28 µM and 7.22 µM | 1.79 µM | 7.22 µM and 3.58 µM | 1.8 µM | 13.8 µM and 5.44 µM | 2.07 µM | 22.8 µM and 5.35 µM | 1.8 µM | 6.84 µM and 3.65 µM |
| COC(=O)[C@H]1CCCN1C(=O)[C@H]1CCCN1C(=O)[C@H](Cc1c[nH]c2ccccc12)NC(=S)Nc1cc(C(F)(F)F)cc(C(F)(F)F)c1 | 5.87 µM | > 100 µM | 5.24 µM | > 100 µM | 92.7 µM | > 100 µM | 4.21 µM | 61.9 µM | 7.32 µM | > 100 µM | 8.43 µM | > 100 µM | 2.99 µM | > 100 µM | 18.5 µM | > 100 µM | 7.01 µM | > 100 µM | 2.95 µM | 8.72 µM |
| CSC(=Nc1ccccc1)/N=C(\SCc1ccccc1)N(C)C |  | 3.23 µM |  | 3.57 µM |  | 6.69 µM |  | 2.54 µM |  | 2.42 µM |  | 2.1 µM |  | 1.19 µM |  | 2.82 µM |  | 3.22 µM |  | 1.05 µM |
| CC[C@H](C)[C@H](NC(=O)CN(C)C)C(=O)N(C)[C@H](C[C@@H](OC(C)=O)c1nc(C(=O)NC23CC(C(=O)OC)(C2)C3)cs1)C(C)C | > 25 µM | > 25 µM | 0.0845 µM | > 25 µM | 1.64 µM | > 25 µM | 0.417 µM | > 25 µM | 0.268 µM | > 25 µM | 0.0804 µM | > 7.19 µM | 0.11 µM | > 25 µM | 12.6 µM | > 25 µM | 0.46 µM | > 25 µM | 0.102 µM | > 25 µM |
